In the assay the test system is A. baumannii ATCC 17978. As to the kind of experiment: Antimicrobial susceptibility testing: 50% growth inhibitory concentration (IC50) determination in Iso-Sensitest broth. The assay is classed as cell-based. The conditions noted are these: Acinetobacter baumannii; A. baumannii strain ATCC17978; Iso-Sensitest medium; OD 600 nm over 16 h; 35±2° C.; read-out: IC50 ATCC17978 (50% growth inhibition concentration). The method, then:
Antimicrobial Susceptibility Testing: 50% Growth Inhibitory Concentration (IC50) Determination The in vitro antimicrobial activity of the compounds was alternatively determined according to the following procedure: The assay used a 10-points Iso-Sensitest broth medium to measure quantitatively the in vitro activity of the compounds against A. baumannii ATCC 17978. Stock compounds in DMSO were serially twofold diluted (e.g. range from 10 to 0.02 μM final concentration) in 384 wells microtiter plates and inoculated with 49 μl the bacterial suspension in Iso-Sensitest medium to have a final cell concentration of ˜5×10^(5) CFU/ml in a final volume/well of […] Microtiter plates were incubated at 35±2° C. Bacterial cell growth was determined by the measurement of optical density at λ=600 nm each 20 minutes over a time course of 16 h. Growth inhibition was calculated during the logarithmic growth of the bacterial cells by determination of the concentration inhibiting 50% (IC50) and 90% (IC90) of the growth. Table 1 provides the 50% growth inhibitory concentrations (IC50) in micromoles per liter of the compounds of present invention obtained against the A. baumannnii strain ATCC17978.
As to `CC(=O)NS(=O)(=O)c1ccc(-c2ccc(Cl)c3c2CNC(=O)[C@H](Cc2c[nH]c4ccccc24)N(C)C(=O)[C@H](CCCCN)NC(=O)[C@H](CCCO)NCc2cccnc2S3)cc1` [Example 16.00, N-[4-[(11S,14S,7S)-14-(4-aminobutyl)-25-chloro-11-(3-hydroxypropyl)-17-(1H-indol-3-ylmethyl)-16-methyl-12,15,18-trioxo-2-thia-4,10,13,16,19-pentazatricyclo[19.4.0.03,8]pentacosa-1(21),3,5,7,22,24-hexaen-22-yl]phenyl]sulfonylacetamide], the IC50 worked out at 310 nM. Then `CN1C(=O)[C@H](CCCCNCC(F)F)NC(=O)[C@H](CCCN)NCc2cccnc2Sc2c(Cl)ccc(-c3cnc(O)nc3)c2CNC(=O)[C@@H]1Cc1c[nH]c2ccccc12` [Example 19.00, (11S,14S,17S)-11-(3-Aminopropyl)-25-chloro-14-[4-(2,2-difluoroethylamino)butyl]-22-(2-hydroxypyrimidin-5-yl)-17-(1H-indol-3-ylmethyl)-16-methyl-2-thia-4,10,13,16,19-pentazatricyclo[19.4.0.03,8]pentacosa-1(21),3,5,7,22,24-hexaene-12,15,18-trione], with 300 nM; and `Cc1ccc(-c2ccc(-c3nnn[nH]3)cc2)c2c1Sc1ncccc1CN[C@@H](CCCN)C(=O)N[C@@H](CCCCN)C(=O)N(C)[C@@H](Cc1c[nH]c3ccccc13)C(=O)NC2` [Example 11.01, (11S,14S,17S)-14-(4-Aminobutyl)-11-(3-aminopropyl)-17-(1H-indol-3-ylmethyl)-16,25-dimethyl-22-[4-(1H-tetrazol-5-yl)phenyl]-2-thia-4,10,13,16,19-pentazatricyclo[19.4.0.03,8]pentacosa-1(25), 3(8),4,6,21,23-hexaene-12,15,18-trione], with 20 nM; and `CN1C(=O)[C@H](CCCN)NC(=O)[C@H](CCCN)NCc2cccnc2Sc2c(Cl)ccc(-c3ccc(S(=O)(=O)O)cc3)c2CNC(=O)[C@@H]1Cc1c[nH]c2ccccc12` [Example 8.00, 4-[(11S,14S,17S)-11,14-Bis(3-aminopropyl)-25-chloro-17-(1H-indol-3-ylmethyl)-16-methyl-12,15,18-trioxo-2-thia-4,10,13,16,19-pentazatricyclo[19.4.0.03,8]pentacosa-1(21),3,5,7,22,24-hexaen-22-yl]benzenesulfonic acid], with 20 nM. As to `C[C@@H]1NCc2cccnc2Sc2c(Cl)ccc(-c3ccc(S(=O)(=O)O)cc3)c2CNC(=O)[C@H](Cc2c[nH]c3ccccc23)N(C)C(=O)[C@H](CCCN)NC1=O` [Example 14.00, 4-[(11S,14S,17S)-14-(3-Aminopropyl)-25-chloro-17-(1H-indol-3-ylmethyl)-11,16-dimethyl-12,15,18-trioxo-2-thia-4,10,13,16,19-pentazatricyclo[19.4.0.03,8]pentacosa-1(25), 3(8),4,6,21,23-hexaen-22-yl]benzenesulfonic acid], the IC50 was 720 nM.

For the compound `CN1C(=O)[C@H](CCCN)NC(=O)[C@H](CCCN)NCc2cccnc2Sc2c(F)ccc(-c3ccc(P(=O)(O)O)cc3)c2CNC(=O)[C@@H]1Cc1c[nH]c2ccccc12` [Example 10.00, [4-[(11S,14S,17S)-11,14-Bis(3-aminopropyl)-25-fluoro-17-(1H-indol-3-ylmethyl)-16-methyl-12,15,18-trioxo-2-thia-4,10,13,16,19-pentazatricyclo[19.4.0.03,8]pentacosa-1(25), 3(8),4,6,21,23-hexaen-22-yl]phenyl]phosphonic acid], the IC50 was found to be 620 nM. Then `CC(=O)NS(=O)(=O)c1ccc(-c2ccc(Cl)c3c2CNC(=O)[C@H](Cc2c[nH]c4ccccc24)N(C)C(=O)[C@H](CCCCN)NC(=O)[C@H](CCCN)NCc2cccnc2S3)cc1` [Example 1.04, N-[4-[(11S,14S,17S)-14-(4-aminobutyl)-11-(3-aminopropyl)-25-chloro-17-(1H-indol-3-ylmethyl)-16-methyl-12,15,18-trioxo-2-thia-4,10,13,16,19-pentazatricyclo[19.4.0.03,8]pentacosa-1(21),3,5,7,22,24-hexaen-22-yl]phenyl]sulfonylacetamide], with 20 nM; and `CN1C(=O)[C@H](CCCCN)NC(=O)[C@H](CCCN)NCc2cccnc2Sc2c(Cl)ccc(-c3ccn(Cc4nnn[nH]4)c(=O)c3)c2CNC(=O)[C@@H]1Cc1c[nH]c2ccccc12` [Example 2.00, (11S,14S,17S)-14-(4-Aminobutyl)-11-(3-aminopropyl)-25-chloro-17-(1H-indol-3-ylmethyl)-16-methyl-22-[2-oxo-1-(1H-tetrazol-5-ylmethyl)-4-pyridyl]-2-thia-4,10,13,16,19-pentazatricyclo[19.4.0.03,8]pentacosa-1(25), 3(8),4,6,21,23-hexaene-12,15,18-trione], with 80 nM. Under `Cc1ccc(-c2ccc(S(=O)(=O)O)cc2)c2c1Sc1ncccc1CN[C@@H](CCCN)C(=O)N[C@@H](CCCCN)C(=O)N(C)[C@@H](Cc1c[nH]c3ccccc13)C(=O)NC2` [Example 11.00, 4-[(11S,14S,17S)-14-(4-Aminobutyl)-11-(3-aminopropyl)-17-(1H-indol-3-ylmethyl)-16,25-dimethyl-12,15,18-trioxo-2-thia-4,10,13,16,19-pentazatricyclo[19.4.0.03,8]pentacosa-1(25), 3(8),4,6,21,23-hexaen-22-yl]benzenesulfonic acid] stands 20 nM; under `CN1C(=O)[C@H](CCCN)NC(=O)[C@H](CCCN)NCc2cccnc2Sc2c(F)ccc(-c3ccc(S(=O)(=O)O)cc3)c2CNC(=O)[C@@H]1Cc1c[nH]c2ccccc12` [Example 9.00, 4-[(11S,14S,17S)-11,14-Bis(3-aminopropyl)-25-fluoro-17-(1H-indol-3-ylmethyl)-16-methyl-12,15,18-trioxo-2-thia-4,10,13,16,19-pentazatricyclo[19.4.0.03,8]pentacosa-1(25), 3(8),4,6,21,23-hexaen-22-yl]benzenesulfonic acid], 20 nM; under `CN1C(=O)[C@H](CCCCN)NC(=O)[C@H](CCCN)NCc2cccnc2Sc2c(Cl)cc(-c3nnn[nH]3)cc2CNC(=O)[C@@H]1Cc1c[nH]c2ccccc12` [Example 21.00, (11S,14S,17S)-14-(4-Aminobutyl)-11-(3-aminopropyl)-25-chloro-17-(1H-indol-3-ylmethyl)-16-methyl-23-(1H-tetrazol-5-yl)-2-thia-4,10,13,16,19-pentazatricyclo[19.4.0.03,8]pentacosa-1(21),3,5,7,22,24-hexaene-12,15,18-trione], 10000 nM. Then `CN1C(=O)[C@H](CCCN)NC(=O)[C@H](CCCN)NCc2cccnc2Sc2c(Cl)ccc(-c3cnc(=O)[nH]c3)c2CNC(=O)[C@@H]1Cc1c[nH]c2ccccc12` [Example 8.02, (11S,14S,17S)-11,14-bis(3-aminopropyl)-25-chloro-17-(1H-indol-3-ylmethyl)-16-methyl-22-(2-oxo-1H-pyrimidin-5-yl)-2-thia-4,10,13,16,19-pentazatricyclo[19.4.0.03,8]pentacosa-1(21),3,5,7,22,24-hexaene-12,15,18-trione], with 80 nM; and `CC(=O)NS(=O)(=O)c1ccc(-c2ccc(Cl)c3c2CNC(=O)[C@H](Cc2c[nH]c4ccccc24)N(C)C(=O)[C@H](CCCCN)NC(=O)[C@H](CCCNCCC(=O)O)NCc2cccnc2S3)cc1` [Example 20.00, 3-[3-[(11S,14S,17S)-22-[4-(Acetylsulfamoyl)phenyl]-14-(4-aminobutyl)-25-chloro-17-(H-indol-3-ylmethyl)-16-methyl-12,15,18-trioxo-2-thia-4,10,13,16,19-pentazatricyclo[19.4.0.03,8]pentacosa-1(21),3,5,7,22,24-hexaen-11-yl]propylamino]propanoic acid], with 520 nM; and `CN1C(=O)[C@H](CCCCN)NC(=O)[C@H](CCCN)NCc2cccnc2Sc2c(F)ccc(-c3ccc(C(=O)NS(C)(=O)=O)cc3)c2CNC(=O)[C@@H]1Cc1c[nH]c2ccccc12` [Example 7.03, 4-[(11S,14S,17S)-14-(4-aminobutyl)-11-(3-aminopropyl)-25-fluoro-17-(1H-indol-3-ylmethyl)-16-methyl-12,15,18-trioxo-2-thia-4,10,13,16,19-pentazatricyclo[19.4.0.03,8]pentacosa-1(25),3(8),4,6,21,23-hexaen-22-yl]-N-methylsulfonyl-benzamide], with 40 nM. `CN1C(=O)[C@H](CCCN)NC(=O)[C@H](CCCN)NCc2cccnc2Sc2c(Cl)ccc(-c3ccc(-c4nnn[nH]4)cc3)c2CNC(=O)[C@@H]1Cc1c[nH]c2ccccc12` [Example 8.01, (11S,14S,17S)-11,14-bis(3-aminopropyl)-25-chloro-17-(1H-indol-3-ylmethyl)-16-methyl-22-[4-(1H-tetrazol-5-yl)phenyl]-2-thia-4,10,13,16,19-pentazatricyclo[19.4.0.03,8]pentacosa-1(21),3,5,7,22,24-hexaene-12,15,18-trione]: the IC50 was found to be 20 nM. Under `CN1C(=O)[C@H](CCCN)NC(=O)[C@H](CCCN)NCc2cccnc2Sc2c(F)ccc(-c3ccc(-c4nnn[nH]4)cc3)c2CNC(=O)[C@@H]1Cc1c[nH]c2ccccc12` [Example 9.01, (11S,14S,17S)-11,14-Bis(3-aminopropyl)-25-fluoro-17-(1H-indol-3-ylmethyl)-16-methyl-22-[4-(1H-tetrazol-5-yl)phenyl]-2-thia-4,10,13,16,19-pentazatricyclo[19.4.0.03,8]pentacosa-1(25), 3(8),4,6,21,23-hexaene-12,15,18-trione] stands 20 nM.

Source of the values: US11505573B2, “Peptide macrocycles against Acinetobacter baumannii” (Hoffmann-La Roche Inc., priority 2018, dated 2022).
